Experimental data: ChEMBL document CHEMBL1130517 (Bioorg Med Chem Lett, 1997)

How the values were obtained:
[1] = target: T1, Endothelin receptor type B (Homo sapiens, UniProt P24530); assay: Receptor binding affinity was determined against [125I]ET1 with membranes prepared from human placenta for ETB receptor
T1 sequence (P24530 whole entry): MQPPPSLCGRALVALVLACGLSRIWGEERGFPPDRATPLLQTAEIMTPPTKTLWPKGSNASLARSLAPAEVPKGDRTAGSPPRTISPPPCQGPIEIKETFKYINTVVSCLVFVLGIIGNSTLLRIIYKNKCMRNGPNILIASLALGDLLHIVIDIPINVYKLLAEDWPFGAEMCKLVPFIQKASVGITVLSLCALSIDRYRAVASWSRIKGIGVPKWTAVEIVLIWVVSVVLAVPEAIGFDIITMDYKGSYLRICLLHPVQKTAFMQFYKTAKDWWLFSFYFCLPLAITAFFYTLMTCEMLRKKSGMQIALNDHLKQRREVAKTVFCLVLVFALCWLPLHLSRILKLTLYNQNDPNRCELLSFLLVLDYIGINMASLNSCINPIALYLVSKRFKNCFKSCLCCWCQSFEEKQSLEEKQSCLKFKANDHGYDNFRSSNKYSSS

[2] = target: T2, Endothelin-1 receptor (Homo sapiens, UniProt P25101); assay: Receptor binding affinity was determined against [125I]ET1 with recombinant human ETA receptor, expressed in baculovirus-infected Sf9 cells
T2 sequence (P25101 whole entry): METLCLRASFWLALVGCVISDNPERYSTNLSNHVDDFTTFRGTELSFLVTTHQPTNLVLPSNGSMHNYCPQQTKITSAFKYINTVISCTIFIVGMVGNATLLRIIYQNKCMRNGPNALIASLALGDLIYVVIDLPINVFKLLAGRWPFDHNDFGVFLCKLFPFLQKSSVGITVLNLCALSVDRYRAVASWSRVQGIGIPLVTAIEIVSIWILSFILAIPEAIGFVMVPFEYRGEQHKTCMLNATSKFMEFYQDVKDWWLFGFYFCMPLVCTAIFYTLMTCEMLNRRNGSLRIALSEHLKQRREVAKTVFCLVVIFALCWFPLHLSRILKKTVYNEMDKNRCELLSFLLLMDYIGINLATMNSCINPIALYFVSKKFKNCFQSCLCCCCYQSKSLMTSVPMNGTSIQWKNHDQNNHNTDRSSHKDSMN

[3] = target: T3, Endothelin receptor type B (Rattus norvegicus, UniProt P21451); assay: Compound was evaluated for in vitro functional inhibitory potency for prevention of sarafotoxin S6c induced constriction of rat tracheal rings (ETB receptors); details: read-out: pA2 (converted)
T3 sequence (P21451 whole entry): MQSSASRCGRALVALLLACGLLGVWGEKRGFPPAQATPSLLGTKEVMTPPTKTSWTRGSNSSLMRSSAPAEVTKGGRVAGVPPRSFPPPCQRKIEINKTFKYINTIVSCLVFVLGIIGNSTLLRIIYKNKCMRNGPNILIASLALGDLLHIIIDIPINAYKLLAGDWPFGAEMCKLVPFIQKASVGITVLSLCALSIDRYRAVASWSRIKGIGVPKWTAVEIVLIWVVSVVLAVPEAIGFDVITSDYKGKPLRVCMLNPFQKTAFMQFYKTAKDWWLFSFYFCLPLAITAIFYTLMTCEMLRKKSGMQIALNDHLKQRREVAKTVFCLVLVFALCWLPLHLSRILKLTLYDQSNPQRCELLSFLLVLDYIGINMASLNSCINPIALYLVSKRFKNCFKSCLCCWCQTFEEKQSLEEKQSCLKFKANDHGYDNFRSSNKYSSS

[4] = target: T4, Endothelin-1 receptor (Rattus norvegicus, UniProt P26684); assay: Compound was evaluated for in vitro functional inhibitory potency for prevention of ET-1 induced constriction of rat aortic rings (ETA receptors); details: read-out: pA2 (converted)
T4 sequence (P26684 whole entry): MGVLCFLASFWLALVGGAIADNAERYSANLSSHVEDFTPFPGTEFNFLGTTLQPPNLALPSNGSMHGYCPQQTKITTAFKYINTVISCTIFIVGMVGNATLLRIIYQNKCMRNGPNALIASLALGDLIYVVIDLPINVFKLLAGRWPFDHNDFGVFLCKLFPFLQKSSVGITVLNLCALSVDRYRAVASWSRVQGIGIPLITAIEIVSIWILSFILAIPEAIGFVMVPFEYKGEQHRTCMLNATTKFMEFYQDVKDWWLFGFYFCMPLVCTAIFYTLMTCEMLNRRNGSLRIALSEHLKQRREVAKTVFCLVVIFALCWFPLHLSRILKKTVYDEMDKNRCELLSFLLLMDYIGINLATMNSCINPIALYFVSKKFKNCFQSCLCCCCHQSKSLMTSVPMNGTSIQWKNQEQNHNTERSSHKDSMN

[5] = target: T4, Endothelin-1 receptor; assay: Evaluation for functional inhibitory potency prevention of ET-1 induced constriction of rat aortic rings (ETA receptors); details: read-out: pA2 (converted)
[6] = target: T2, Endothelin-1 receptor; assay: Receptor binding affinity was determined in a radioligand binding assay against [125I]ET1 with recombinant human ETA receptor, expressed in baculovirus-infected […] cells

Row | SMILES | IC50 [1] [nM] | IC50 [2] [nM] | Kb [3] [nM] | Kb [4] [nM] | Kb [5] [nM] | IC50 [6] [nM]
1 | CNCC(=O)OCCOc1nc(C)nc(NS(=O)(=O)c2ccc(C(C)(C)C)cc2)c1Oc1ccccc1OC | 300 | 1700 |  |  |  | 
2 | COc1ccccc1Oc1c(NS(=O)(=O)c2ccc(C(C)(C)C)cc2)nc(C)nc1OCCNC(=O)Nc1ccccn1 | 1240 | 80 |  |  |  | 
3 | COc1ccccc1Oc1c(NS(=O)(=O)c2ccc(C(C)(C)C)cc2)nc(-c2ncccn2)nc1OCCO [BOSENTAN] |  |  | 1580 | 50.1 |  | 
4 | COc1ccccc1Oc1c(NS(=O)(=O)c2ccc(C(C)C)cn2)nc(-c2ncccn2)nc1OCCOC(=O)Nc1ccccn1 | 49 | 4 |  |  | 0.1 | 
5 | COc1ccccc1Oc1c(NS(=O)(=O)c2ccc(C(C)(C)C)cc2)nc(-c2cccs2)nc1OCCOC(=O)Nc1ccccn1 | 200 | 30 |  |  | 10 | 
6 | COc1ccccc1Oc1c(NS(=O)(=O)c2ccc(C(C)(C)C)cc2)nc(C2CC2)nc1OCCOC(=O)Nc1ccccn1 | 60 | 7 |  |  | 20 | 
7 | COc1ccccc1Oc1c(NS(=O)(=O)c2ccc(C(C)(C)C)cc2)nc(-c2ncccn2)nc1OCCOC(=O)Nc1ccccn1 | 43 |  |  |  | 1 | 
8 | COc1ccccc1Oc1c(NS(=O)(=O)c2ccc(C(C)C)cn2)nc(N2CCOCC2)nc1OCCOC(=O)Nc1ccccn1 | 5 | 0.3 | 25.1 | 0.501 |  | 0.7
9 | COc1ccccc1Oc1c(NS(=O)(=O)c2ccc(C(C)(C)C)cc2)nc(C)nc1OCCOC(=O)Nc1cccnc1 | 700 | 900 |  |  |  | 
10 | COc1ccccc1Oc1c(NS(=O)(=O)c2ccc(C(C)C)cn2)nc(N2CCCCC2)nc1OCCOC(=O)Nc1ccccn1 | 25 | 3 |  |  | 5.01 | 
11 | COc1ccccc1Oc1c(NS(=O)(=O)c2ccc(C(C)(C)C)cc2)nc(C)nc1OCCOC(=O)c1ccoc1 | 1000 | 1100 |  |  |  | 
12 | COc1ccccc1Oc1c(NS(=O)(=O)c2ccc(C(C)(C)C)cc2)nc(C(C)(C)C)nc1OCCOC(=O)Nc1ccccn1 | 144 | 14 |  |  | 25.1 | 
13 | COc1ccccc1Oc1c(NS(=O)(=O)c2ccc(C)cn2)nc(N2CCOCC2)nc1OCCOC(=O)Nc1ccccn1 | 25 | 0.2 |  |  | 0.2 | 
14 | COc1ccccc1Oc1c(NS(=O)(=O)c2ccc(C(C)(C)C)cc2)nc(C)nc1OCCOC(=O)Nc1ccccn1 | 120 | 8 |  |  |  | 
15 | COc1ccccc1Oc1c(NS(=O)(=O)c2ccc(C)cn2)nc(-c2ncccn2)nc1OCCOC(=O)Nc1ccccn1 | 170 | 4 |  |  | 1 | 
16 | COc1ccccc1Oc1c(NS(=O)(=O)c2ccc(C(C)(C)C)cc2)nc(N2CCOCC2)nc1OCCOC(=O)Nc1ccccn1 | 19 | 17 |  |  | 10 | 
17 | COc1ccccc1Oc1c(NS(=O)(=O)c2ccc(C(C)(C)C)cc2)nc(C)nc1OCCOC(=O)Nc1ccncc1 | 2800 | 1900 |  |  |  | 
18 | COc1ccccc1Oc1c(NS(=O)(=O)c2ccc(C(C)(C)C)cc2)nc(C)nc1OCCO | 70 | 1500 |  |  |  | 
19 | COc1ccccc1Oc1c(NS(=O)(=O)c2ccc(C(C)(C)C)cc2)nc(C(C)C)nc1OCCOC(=O)Nc1ccccn1 | 160 | 7 |  |  | 15.8 | 
20 | CCCc1nc(NS(=O)(=O)c2ccc(C(C)(C)C)cc2)c(Oc2ccccc2OC)c(OCCOC(=O)Nc2ccccn2)n1 | 63 | 9 |  |  | 12.6 | 
21 | COc1ccccc1Oc1c(NS(=O)(=O)c2ccc(C(C)C)cn2)nc(N2CCSCC2)nc1OCCOC(=O)Nc1ccccn1 | 14 | 1 |  |  | 1.58 | 
22 | COc1ccccc1Oc1c(NS(=O)(=O)c2ccc(C(C)(C)C)cc2)nc(C)nc1OCCOC(=O)c1cccnc1 | 770 | 880 |  |  |  | 
